In publication PMC12435400, “Thymidine Phosphorylase Inhibitory Potential and Molecular Docking Studies of Secondary Metabolites Isolated From Fernandoa adenophylla (Wall. ex G. Don) Steenis” (Chemistry & Biodiversity, 2025):
Read-outs that look alike come from different tables or passages of the source.

How the values were obtained:
[1] = biological target: T1, recombinant EcTP enzyme (thymidine phosphorylase) (Escherichia coli, UniProt P07650); assay: biochemical
T1 construct: purchased
Description: (§1) In this study, we utilized commercially available recombinant EcTP enzyme as a model for TP inhibition assessment due to its structural similarities with mammalian TP enzymes. Spectrophotometric TP inhibition assays were conducted by incubating 0.058 U of EcTP enzyme with 500 µM of test compounds at 30°C for 10 min. Subsequently, 1.5 mM of thymidine substrate was added, and absorbance changes were monitored for 10 min at 290 nm using a microplate reader. […] Mechanistic studies involved incubating the TP enzyme with varying inhibitor concentrations and substrate concentrations ranging from 0.1875 to 1.5 µM. Enzyme activity was assessed by measuring absorbance changes for an additional 10 min. Triplicate experiments were conducted for mechanistic investigations to ensure the results' robustness.

[2] = biological target: T2, thymidine phosphorylase (EcTP) (Escherichia coli, UniProt P07650); assay: biochemical
T2 construct: purchased
Description: Mechanism‐based studies were carried out on the selected compounds, that is, 1, 2, and 5.
as §1
Chemical reactions were examined using kinetic studies to determine their rates, mode of inhibition, and the variables influencing these characteristics. The kind and mechanism of inhibition of derivatives are ascertained here. Test compounds (0.5–500 µM) were incubated with TP (0.058 U/200 µL) for 10 min at 30°C in mechanistic studies. The addition of various thymidine concentrations (varying from 0.1875 to 1.5 µM) then started the process. Thymidine cleavage was tracked at 290 nm for ten min straight using an ELISA plate reader (SpectraMax 384; Molecular Devices, San Jose, CA, USA).

[3] = 500 µM test compound, 0.058 U EcTP, 1.5 mM thymidine, 30°C, read-out: % Inhibition
[4] = EcTP, thymidine substrate, absorbance at 290 nm, triplicate, read-out: IC50 ± SEM
[5] = dissociation constant from secondary replot of Lineweaver-Burk and Dixon plots, unit printed in text b13 only, read-out: Ki ± SEM
[6] = thymidine as variable substrate

T1 sequence (P07650 whole entry): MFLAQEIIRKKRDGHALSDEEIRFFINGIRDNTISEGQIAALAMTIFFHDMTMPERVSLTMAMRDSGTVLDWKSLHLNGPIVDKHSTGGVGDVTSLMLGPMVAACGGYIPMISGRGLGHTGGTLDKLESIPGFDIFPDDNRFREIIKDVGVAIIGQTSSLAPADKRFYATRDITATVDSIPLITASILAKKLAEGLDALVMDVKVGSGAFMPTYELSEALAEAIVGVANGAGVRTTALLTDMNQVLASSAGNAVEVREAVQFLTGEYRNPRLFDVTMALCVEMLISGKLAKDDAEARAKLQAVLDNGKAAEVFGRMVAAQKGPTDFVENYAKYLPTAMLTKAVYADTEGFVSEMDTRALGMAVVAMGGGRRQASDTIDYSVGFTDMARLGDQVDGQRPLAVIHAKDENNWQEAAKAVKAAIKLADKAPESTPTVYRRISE
T2 sequence (P07650 whole entry): as above

SMILES	inhibition at 500 µM [1, 3]	IC50 [1, 4]	Ki [2, 5]	Type of Inhibitor [2, 6]	IC50 [1]	inhibition at 500 µM [1]	Ki [2]	Type of Inhibitor [2]
CC(C)=C(C)[C@H]1C[C@]2(C)OC3=C(C(=O)c4ccccc4C3=O)[C@H]3[C@@H]2[C@@]12C(=O)c1ccccc1[C@@]3(O)C2=O [Peshawaraquinone (3), Peshawaraquinone]	87.1%	4.9 ± 0.8 µM						
CC1(C)CCC2=C(O1)C(=O)c1ccccc1C2=O [Alpha‐lapachone (2), Alpha‐lapachone]	88.3%	3.6 ± 0.9 µM	4.9 ± 0.008 µM	Non‐competitive				
COC(=O)C1(O)c2ccccc2C(=O)C1(O)CC=C(C)C (stereo not drawn) [Indanone derivative (5), Methyl‐1,2‐dihydroxy‐2‐(3‐methylbut‐2‐en‐1‐yl)‐3‐oxo‐2,3‐dihydro‐1H‐indene‐1carboxylate]				Non‐competitive	1.8 ± 0.5 µM	91.3%	7.1 ± 0.009 µM	
O=c1[nH]c(=O)c2cc[nH]c2[nH]1 [7‐Deazaxanthine, reference compound]						80.6%		Non‐competitive
CC1(C)C=CC2=C(O1)C(=O)c1ccccc1C2=O [Dehydro‐α‐lapachone (4), Dehydro‐α‐lapachone]	82.6%	17.2 ± 1 µM						
CC(C)=CCC1=C(O)C(=O)c2ccccc2C1=O [Lapachol (1), Lapachol]	86.2%	2.3 ± 0.1 µM	4.6 ± 0.006 µM	Non‐competitive				
